# According to patent US20100298141A1, “SUBSTITUTED PYRIDINE N-OXIDE HERBICIDES” (E. I. DU PONT DE NEMOURS AND COMPANY, priority 2007, published 2010):
# Experiments:
# [1] = system: morningglory; assay: Test A pre-/postemergence greenhouse test; assay type: in vivo, Ipomoea spp.; conditions: for Plant response rating, Morningglory: 0 to 100 scale where 0 is no effect and 100 is complete control; for Morningglory plant response rating: 0 to 100 scale
# In short: (§1)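 Visual injury ratings, made relative to untreated controls roughly ten days after treatment, cover both preemergence and postemergence application. Compounds in a surfactant-containing non-phytotoxic solvent were sprayed onto the soil surface after sowing and, simultaneously, onto young plants at the one- to two-leaf stage.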
# [2] = system: redroot pigweed; assay: Test A pre-/postemergence greenhouse test; assay type: in vivo, Amaranthus retroflexus; conditions: for Plant response rating, Pigweed: 0 to 100 scale where 0 is no effect and 100 is complete control; for Pigweed plant response rating: 0 to 100 scale
# In short: as §1
# [3] = system: blackgrass; assay: Test C pre-/postemergence test; assay type: in vivo, Alopecurus myosuroides
# In short: (§2)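 Compounds in a non-phytotoxic solvent with surfactant applied preemergence to seeded pots and, at the same time, postemergence to plants 2–18 cm tall (1- to 4-leaf stage). Paddy tests: pots flooded to 3 cm, compound applied into the water, depth held throughout.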
# [4] = system: downy brome; assay: Test C pre-/postemergence test; assay type: in vivo, Bromus tectorum
# In short: as §2
# [5] = system: green foxtail; assay: Test C pre-/postemergence test; assay type: in vivo, Setaria viridis
# In short: as §2
# [6] = system: wild oat; assay: Test C pre-/postemergence test; assay type: in vivo, Avena fatua
# In short: as §2
# [7] = system: bermudagrass; assay: Test C pre-/postemergence test; assay type: in vivo, Cynodon dactylon
# In short: as §2
# [8] = system: cocklebur; assay: Test C pre-/postemergence test; assay type: in vivo, Xanthium strumarium
# In short: as §2
# [9] = system: woolly cupgrass; assay: Test C pre-/postemergence test; assay type: in vivo, Eriochloa villosa
# In short: as §2
# [10] = system: kochia; assay: Test C pre-/postemergence test; assay type: in vivo, Kochia scoparia
# In short: as §2
# [11] = system: lambsquarters; assay: Test C pre-/postemergence test; assay type: in vivo, Chenopodium album; conditions: for Plant response rating, Lambsquarters: scale 0 to 100, 0 no effect, 100 complete control
# In short: as §2
# [12] = system: yellow nutsedge; assay: Test C pre-/postemergence test; assay type: in vivo, Cyperus esculentus
# In short: as §2
# [13] = system: soybean; assay: Test C pre-/postemergence test; assay type: in vivo, Glycine max
# In short: as §2
# [14] = system: rice; assay: Test C flooded paddy test; assay type: in vivo, Oryza sativa; conditions: Flood
# In short: (§3)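 Test compounds are applied straight into paddy water held 3 cm above the soil surface, with that flood maintained for the whole test. After 13 to 15 days in the greenhouse, each species is scored visually relative to controls.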
# [15] = system: duck salad; assay: Test C flooded paddy test; assay type: in vivo, Heteranthera limosa; conditions: Flood
# In short: as §3
# [16] = Postemergence, 500 g ai/ha, 0 is no effect, 100 is complete control
# [17] = Preemergence, 125 g ai/ha, 0 no effect, 100 complete control
# [18] = 62 g ai/ha, Preemergence, scale 0 to 100
# [19] = 125 g ai/ha, preemergence, scale 0 (no effect) to 100 (complete control)
# [20] = Postemergence, 125 g ai/ha, scale 0 to 100, 0 no effect, 100 complete control
# [21] = Postemergence, 250 g ai/ha, scale 0 to 100, 0 no effect, 100 complete control
# [22] = Preemergence, 31 g ai/ha, scale 0 to 100 (0 no effect, 100 complete control)
# [23] = preemergence, 250 g ai/ha, scale 0 (no effect) to 100 (complete control)
# [24] = 62 g ai/ha, scale 0 to 100 (0 no effect, 100 complete control)
# [25] = 250 g ai/ha, scale 0 to 100, 0 no effect, 100 complete control, 13 to 15 days
compound,measurement,setting,value
Cn1nc(C(F)(F)C(F)(F)F)c(C[S+]([O-])c2cccc[n+]2[O-])c1OCC(F)(F)F (stereo not drawn) [Compound 79],"Plant response rating, Morningglory","[1]; Postemergence, 125 g ai/ha",50
same,Morningglory plant response rating,[1]; [16],100
same,Morningglory plant response rating,[1]; [17],60
same,"Plant response rating, Morningglory","[1]; Preemergence, 500 g ai/ha",90
same,"Plant response rating, Pigweed","[2]; Postemergence, 125 g ai/ha",30
same,Pigweed plant response rating,[2]; [16],70
same,Pigweed plant response rating,[2]; [17],90
same,"Plant response rating, Pigweed","[2]; Preemergence, 500 g ai/ha",100
same,Blackgrass plant response rating,[3]; [18],100
same,Blackgrass plant response rating,[3]; [19],100
same,"Plant response rating (0 to 100), Blackgrass","[3]; Postemergence, 31 g ai/ha",70
same,"Plant response rating (0 to 100), Blackgrass","[3]; Postemergence, 62 g ai/ha",80
same,"Plant response rating, Blackgrass",[3]; [20],90
same,"Plant response rating, Blackgrass",[3]; [21],90
same,"Plant response rating, Blackgrass",[3]; [22],98
same,Blackgrass plant response rating,[3]; [23],100
same,"Bromegrass, Downy plant response rating",[4]; [18],50
same,"Bromegrass, Downy plant response rating",[4]; [19],100
same,"Plant response rating (0 to 100), Bromegrass, Downy","[4]; Postemergence, 31 g ai/ha",0
same,"Plant response rating (0 to 100), Bromegrass, Downy","[4]; Postemergence, 62 g ai/ha",0
same,"Plant response rating, Bromegrass, Downy",[4]; [20],20
same,"Plant response rating, Bromegrass, Downy",[4]; [21],60
same,"Plant response rating, Bromegrass, Downy",[4]; [22],50
same,"Bromegrass, Downy plant response rating",[4]; [23],100
same,"Foxtail, Green plant response rating",[5]; [18],85
same,"Foxtail, Green plant response rating",[5]; [19],100
same,"Plant response rating (0 to 100), Foxtail, Green","[5]; Postemergence, 31 g ai/ha",0
same,"Plant response rating (0 to 100), Foxtail, Green","[5]; Postemergence, 62 g ai/ha",60
same,"Plant response rating, Foxtail, Green",[5]; [20],70
same,"Plant response rating, Foxtail, Green",[5]; [21],85
same,"Plant response rating, Foxtail, Green",[5]; [22],65
same,"Foxtail, Green plant response rating",[5]; [23],100
same,"Oat, Wild plant response rating",[6]; [18],70
same,"Oat, Wild plant response rating",[6]; [19],85
same,"Plant response rating (0 to 100), Oat, Wild","[6]; Postemergence, 31 g ai/ha",0
same,"Plant response rating (0 to 100), Oat, Wild","[6]; Postemergence, 62 g ai/ha",35
same,"Plant response rating, Oat, Wild",[6]; [20],40
same,"Plant response rating, Oat, Wild",[6]; [21],50
same,"Plant response rating, Oat, Wild",[6]; [22],70
same,"Oat, Wild plant response rating",[6]; [23],90
same,Bermudagrass plant response rating,"[7]; 62 g ai/ha, Preemergence, scale 0 to 100 (0 no effect, 100 complete control)",100
same,Bermudagrass plant response rating,[7]; [19],100
same,"Plant response rating (0 to 100), Bermudagrass","[7]; Postemergence, 31 g ai/ha",0
same,"Plant response rating (0 to 100), Bermudagrass","[7]; Postemergence, 62 g ai/ha",0
same,"Plant response rating, Bermudagrass",[7]; [20],45
same,"Plant response rating, Bermudagrass",[7]; [21],50
same,"Plant response rating, Bermudagrass",[7]; [22],95
same,Bermudagrass plant response rating,[7]; [23],100
same,Cocklebur plant response rating,[8]; [18],0
same,Cocklebur plant response rating,[8]; [19],50
same,"Plant response rating (0 to 100), Cocklebur","[8]; Postemergence, 31 g ai/ha",0
same,"Plant response rating (0 to 100), Cocklebur","[8]; Postemergence, 62 g ai/ha",0
same,"Plant response rating, Cocklebur",[8]; [20],0
same,"Plant response rating, Cocklebur",[8]; [21],0
same,"Plant response rating, Cocklebur",[8]; [22],0
same,Cocklebur plant response rating,[8]; [23],50
same,"Cupgrass, Woolly plant response rating",[9]; [18],50
same,"Cupgrass, Woolly plant response rating",[9]; [19],98
same,"Plant response rating (0 to 100), Cupgrass, Woolly","[9]; Postemergence, 31 g ai/ha",0
same,"Plant response rating (0 to 100), Cupgrass, Woolly","[9]; Postemergence, 62 g ai/ha",0
same,"Plant response rating, Cupgrass, Woolly",[9]; [20],40
same,"Plant response rating, Cupgrass, Woolly",[9]; [21],50
same,"Plant response rating, Cupgrass, Woolly",[9]; [22],0
same,"Cupgrass, Woolly plant response rating",[9]; [23],100
same,Kochia plant response rating,[10]; [18],100
same,Kochia plant response rating,[10]; [19],100
same,"Plant response rating (0 to 100), Kochia","[10]; Postemergence, 31 g ai/ha",0
same,"Plant response rating (0 to 100), Kochia","[10]; Postemergence, 62 g ai/ha",0
same,"Plant response rating, Kochia",[10]; [20],0
same,"Plant response rating, Kochia",[10]; [21],0
same,"Plant response rating, Kochia",[10]; [22],100
same,Kochia plant response rating,[10]; [23],100
same,Lambsquarters plant response rating,[11]; [18],90
same,Lambsquarters plant response rating,[11]; [19],100
same,"Plant response rating (0 to 100), Lambsquarters","[11]; Postemergence, 62 g ai/ha",0
same,"Plant response rating, Lambsquarters","[11]; Postemergence, 125 g ai/ha",0
same,"Plant response rating, Lambsquarters","[11]; Postemergence, 250 g ai/ha",70
same,Lambsquarters plant response rating,[11]; [23],100
same,"Nutsedge, Yellow plant response rating",[12]; [18],75
same,"Nutsedge, Yellow plant response rating",[12]; [19],90
same,"Plant response rating (0 to 100), Nutsedge, Yellow","[12]; Postemergence, 31 g ai/ha",0
same,"Plant response rating (0 to 100), Nutsedge, Yellow","[12]; Postemergence, 62 g ai/ha",0
same,"Plant response rating, Nutsedge, Yellow",[12]; [20],0
same,"Plant response rating, Nutsedge, Yellow",[12]; [21],10
same,"Plant response rating, Nutsedge, Yellow",[12]; [22],0
same,"Nutsedge, Yellow plant response rating",[12]; [23],100
same,Soybean plant response rating,[13]; [18],60
same,"Plant response rating (0 to 100), Soybean","[13]; Postemergence, 31 g ai/ha",50
same,"Plant response rating (0 to 100), Soybean","[13]; Postemergence, 62 g ai/ha",55
same,"Plant response rating, Soybean",[13]; [20],60
same,"Plant response rating, Soybean",[13]; [22],60
same,Soybean plant response rating,[13]; [23],80
same,"Plant response rating, Rice",[14]; [24],70
same,"Plant response rating, Rice",[14]; [25],80
same,"Plant response rating, Ducksalad",[15]; [24],90
same,"Plant response rating, Ducksalad",[15]; [25],100
